Experimental data from patent US20240383852A1, “ANTI-VIRAL COMPOUNDS” (INFEX Therapeutics Limited, priority 2021, published 2024).
Counter-ions that a name gives are not always drawn.

What was measured:
SARS-CoV-2 PLpro = target: T1, SARS-CoV-2 PLpro (Severe acute respiratory syndrome coronavirus 2, UniProt P0DTD1); experiment: biochemical; conditions: 60 nM papain-like protease, 50 μM Z-RLRGG-AMC, pH 7.5, 37° C.; read-out: SARS-CoV-2 PLpro IC50
T1 construct: containing 60 nM papain-like protease

[1] = tested on: human Hep G2 cells (ATCC HB-8065); experiment: Cytotoxicity in Hep G2 cells (CellTiter-Glo); format: cell-based; conditions: Hep G2 cells, 100 μM test article, 24-hour exposure

Compound	IC50 (SARS-CoV-2 PLpro)	% Cell Viability [1]
COc1ccc([C@@H](C)NC(=O)c2cc(N3CCCN(C)CC3)ccc2C)cc1OC [Example 13, N-[(1R)-1-(3,4-Dimethoxyphenyl)ethyl]-2-methyl-5-(4-methyl-1,4-diazepan-1-yl)benzamide]	< 10 µM	103.8%
Cc1ccc(N2CCN(C)CC2)nc1C(=O)N[C@H](C)c1cccc2ccccc12 [Example 15, 3-Methyl-6-(4-methylpiperazin-1-yl)-N-[(1R)-1-(1-naphthyl)ethyl]pyridine-2-carboxamide hydrochloride]	< 10 µM	76.1%
Cc1ccc(N2CCC(N)CC2)cc1C(=O)N[C@H](C)c1cccc2ccccc12 [Example 16, 5-(4-Amino-1-piperidyl)-2-methyl-N-[(1R)-1-(1-naphthyl)ethyl]benzamide]	< 5 µM	1.1%
Cc1ccc(N2CC3(CNC3)C2)cc1C(=O)N[C@H](C)c1cccc2ccccc12 [Example 17, 5-(2,6-Diazaspiro[3.3]heptan-2-yl)-2-methyl-N-[(1R)-1-(1-naphthyl)ethyl]benzamide]	< 5 µM	34.7%
COc1ccc([C@@H](C)NC(=O)c2cc(N3C[C@@H]4C[C@H]3CN4)ccc2C)cc1OC [Example 18, 5-[(1S,4S)-2,5-Diazabicyclo[2.2.1]heptan-2-yl]-N-[(1R)-1-(3,4-dimethoxyphenyl)ethyl]-2-methyl-benzamide]	< 20 µM	119.3%
Cc1ccc(N2CCN[C@@H](C(C)C)C2)cc1C(=O)N[C@H](C)c1cccc2ccccc12 [Example 19, 5-[(3S)-3-Isopropylpiperazin-1-yl]-2-methyl-N-[(1R)-1-(1-naphthyl)ethyl]benzamide]	< 2 µM	1.0%
Cc1ccc(N2CC3(CN(CCO)C3)C2)cc1C(=O)N[C@H](C)c1cccc2ccccc12 [Example 20, 5-[6-(2-Hydroxyethyl)-2,6-diazaspiro[3.3]heptan-2-yl]-2-methyl-N-[(1R)-1-(1-naphthyl)ethyl]benzamide]	< 5 µM	94.3%
Cc1ccc(N2CCN(C)CC2)cc1C(=O)N[C@H](C)c1cccc2ccccc12 [Example 21, 2-Methyl-5-(4-methylpiperazin-1-yl)-N-[(1R)-1-(1-naphthyl)ethyl]benzamide]	< 2 µM	56.9%
Cc1ccc(N2CCN(C)CC2)cc1C(=O)N[C@H](C)c1cccc(Br)c1 [Example 22, N-[(1R)-1-(3-Bromophenyl)ethyl]-2-methyl-5-(4-methylpiperazin-1-yl)benzamide]	< 5 µM	65.5%
COc1ccc([C@@H](C)NC(=O)c2cc(N3CCN(C)CC3)ccc2C)cc1OC [Example 23, N-[(1R)-1-(3,4-Dimethoxyphenyl)ethyl]-2-methyl-5-(4-methylpiperazin-1-yl)benzamide]	< 2 µM	87.3%
Cc1ccc(N2CCN(C)CC2)cc1C(=O)N[C@H](C)c1ccc(Br)cc1 [Example 24, N-[(1R)-1-(4-Bromophenyl)ethyl]-2-methyl-5-(4-methylpiperazin-1-yl)benzamide]	< 10 µM	70.7%
Cc1ccc(N2CCN(C)CC2)cc1C(=O)N[C@H](C)c1cccc(F)c1 [Example 25, N-[(1R)-1-(3-Fluorophenyl)ethyl]-2-methyl-5-(4-methylpiperazin-1-yl)benzamide]	< 20 µM	95.2%
Cc1ccc(N2CCS(=O)(=O)CC2)cc1C(=O)N[C@H](C)c1cccc2ccccc12 [Example 26, 5-(1,1-Dioxo-1,4-thiazinan-4-yl)-2-methyl-N-[(1R)-1-(1-naphthyl)ethyl]benzamide]	< 100 µM	82.8%
Cc1ccc(N2CCN(C)CC2)cc1C(=O)N[C@H](C)c1cccc(-c2ccccc2)c1 [Example 27, 2-Methyl-5-(4-methylpiperazin-1-yl)-N-[(1R)-1-(3-phenylphenyl)ethyl]benzamide]	< 2 µM	1.0%
COc1cccc([C@@H](C)NC(=O)c2cc(N3CCN(C)CC3)ccc2C)c1 [Example 29, N-[(1R)-1-(3-Methoxyphenyl)ethyl]-2-methyl-5-(4-methylpiperazin-1-yl)benzamide]	< 5 µM	100%
COc1ccc([C@@H](C)NC(=O)c2cc(N3CCN(C)CC3)ccc2C)cc1 [Example 30, N-[(1R)-1-(4-Methoxyphenyl)ethyl]-2-methyl-5-(4-methylpiperazin-1-yl)benzamide]	< 10 µM	102.3%
COc1cc(OC)cc([C@@H](C)NC(=O)c2cc(N3CCN(C)CC3)ccc2C)c1 [Example 31, N-[(1R)-1-(3,5-Dimethoxyphenyl)ethyl]-2-methyl-5-(4-methylpiperazin-1-yl)benzamide]	< 5 µM	90.6%

Compound	IC50 (SARS-CoV-2 PLpro)	% Cell Viability [1]
COc1ccc([C@@H](C)NC(=O)c2cc(N3CCN(CCO)CC3)ccc2C)cc1OC [Example 32, N-[(1R)-1-(3,4-Dimethoxyphenyl)ethyl]-5-[4-(2-hydroxyethyl)piperazin-1-yl]-2-methyl-benzamide]	< 5 µM	103.5%
Cc1ccc(N2CCN(C)CC2)cc1C(=O)N[C@H](C)c1cccc2c1OCO2 [Example 33, N-[(1R)-1-(1,3-Benzodioxol-4-yl)ethyl]-2-methyl-5-(4-methylpiperazin-1-yl)benzamide hydrochloride salt]	< 10 µM	95.5%
Cc1ccc(N2CCN(C)CC2)cc1C(=O)N[C@H](C)c1cccc(C#N)c1 [Example 34, N-[(1R)-1-(3-Cyanophenyl)ethyl]-2-methyl-5-(4-methylpiperazin-1-yl)benzamide]	< 10 µM	97.8%
COc1ccc([C@@H](C)NC(=O)c2cc(N3CC4CNCC4C3)ccc2C)cc1OC (stereo partly drawn) [Example 36, 5-(2,3,3a,4,6,6a-Hexahydro-1H-pyrrolo[3,4-c]pyrrol-5-yl)-N-[(1R)-1-(3,4-dimethoxyphenyl)ethyl]-2-methyl-benzamide]	< 2 µM	98.0%
Cc1nnc(-c2cccc([C@@H](C)NC(=O)c3cc(N4CCN(C)CC4)ccc3C)c2)s1 [Example 39, 2-Methyl-5-(4-methylpiperazin-1-yl)-N-[(1R)-1-[3-(5-methyl-1,3,4-thiadiazol-2-yl)phenyl]ethyl]benzamide]	< 2 µM	90.5%
COc1ccc(-c2cccc([C@@H](C)NC(=O)c3cc(N4CCN(C)CC4)ccc3C)c2)cc1 [Example 40, N-[(1R)-1-[3-(4-Methoxyphenyl)phenyl]ethyl]-2-methyl-5-(4-methylpiperazin-1-yl)benzamide]	< 2 µM	0.9%
Cc1ccc(N2CCN(C)CC2)cc1C(=O)N[C@H](C)c1cccc(-c2ccc(C(=O)O)cc2)c1 [Example 41]	< 5 µM	110.1%
Cc1ccc(N2CCN(C)CC2)cc1C(=O)N[C@H](C)c1cccc(-c2cccc(CO)c2)c1 [Example 42, N-[(1R)-1-[3-[3-(Hydroxymethyl)phenyl]phenyl]ethyl]-2-methyl-5-(4-methylpiperazin-1-yl)benzamide]	< 2 µM	64.1%
Cc1ccc(N2CCN(C)CC2)cc1C(=O)N[C@H](C)c1cccc(-c2cccc(C(N)=O)c2)c1 [Example 43, N-[(1R)-1-[3-(3-Carbamoylphenyl)phenyl]ethyl]-2-methyl-5-(4-methylpiperazin-1-yl)benzamide]	< 2 µM	71.3%
Cc1ccc(N2CCN(C)CC2)cc1C(=O)N[C@H](C)c1cccc(-c2cccc(CCO)c2)c1 [Example 44, N-[(1R)-1-[3-[3-(2-Hydroxyethyl)phenyl]phenyl]ethyl]-2-methyl-5-(4-methylpiperazin-1-yl)benzamide]	< 2 µM	61.0%
Cc1ccc(N2CCN(C)CC2)cc1C(=O)N[C@H](C)c1cccc(-c2cccc(C(C)(C)O)c2)c1 [Example 45, N-[(1R)-1-[3-[3-(1-Hydroxy-1-methyl-ethyl)phenyl]phenyl]ethyl]-2-methyl-5-(4-methylpiperazin-1-yl)benzamide]	< 2 µM	59.5%
CNC(=O)c1cccc(-c2cccc([C@@H](C)NC(=O)c3cc(N4CCN(C)CC4)ccc3C)c2)c1 [Example 46, 2-Methyl-N-[(1R)-1-[3-[3-(methylcarbamoyl)phenyl]phenyl]ethyl]-5-(4-methylpiperazin-1-yl)benzamide]	< 2 µM	86.9%
Cc1ccc(N2CCN(C)CC2)cc1C(=O)N[C@H](C)c1cccc(-c2cccc(C(=O)N(C)C)c2)c1 [Example 47, N-[(1R)-1-[3-[3-(Dimethylcarbamoyl)phenyl]phenyl]ethyl]-2-methyl-5-(4-methylpiperazin-1-yl)benzamide]	< 2 µM	54.0%
Cc1ccc(N2CCN(C)CC2)cc1C(=O)N[C@H](C)c1cccc(-c2ccc(=O)n(C)c2)c1 [Example 48, 2-Methyl-N-[(1R)-1-[3-(1-methyl-6-oxo-3-pyridyl)phenyl]ethyl]-5-(4-methylpiperazin-1-yl)benzamide]	< 5 µM	63.6%
Cc1ccc(N2CCN(C)CC2)cc1C(=O)N[C@H](C)c1cccc(-c2cc[nH]n2)c1 [Example 49, 2-Methyl-5-(4-methylpiperazin-1-yl)-N-[(1R)-1-[3-(1H-pyrazol-3-yl)phenyl]ethyl]benzamide]	< 2 µM	82.7%
Cc1ccc(N2CCN(C)CC2)cc1C(=O)N[C@H](C)c1cccc(-c2ccsc2)c1 [Example 50, 2-Methyl-5-(4-methylpiperazin-1-yl)-N-[(1R)-1-[3-(3-thienyl)phenyl]ethyl]benzamide]	< 2 µM	2.3%
Cc1ccc(N2CCN(C)CC2)cc1C(=O)N[C@H](C)c1cccc(-c2cccc(CS(C)(=O)=O)c2)c1 [Example 52, 2-Methyl-5-(4-methylpiperazin-1-yl)-N-[(1R)-1-[3-[3 (methylsulfonylmethyl)phenyl]phenyl]ethyl]benzamide]	< 2 µM	49.0%
